From the NIST ThermoML archive (doi:10.1016/j.jct.2016.01.019)
Where “and” joins values, the source holds several entries; their conditions need not be identical. Equal entries are not always repeated. ± gives the expanded uncertainty stated by the source.

How the values were obtained:
[1] = xn = mol fraction of the nth substance listed; settings: 94.64 kPa, Liquid, Vibrating tube method
[2] = Liquid; for mass density: 94.64 kPa, Vibrating tube method; for vapor or sublimation pressure: Ebulliometric method (Recirculating still)

CC(O)CO (stereo unspecified) [1,2-propanediol] + OCCCO
[1], x1 = 1
Settings	mass density [kg/m3]
293.15 K	1036.25 ± 3.2
298.15 K	1032.61 ± 3.2
303.15 K	1028.93 ± 3.2
308.15 K	1025.19 ± 3.2
313.15 K	1021.42 ± 3.2
318.15 K	1017.65 ± 3.2

OCCCO [propan-1,3-diol] + CC(O)CO
mass density [kg/m3], [1]
Settings	x2 = 0	x2 = 0.0985	x2 = 0.2023	x2 = 0.3015	x2 = 0.3961	x2 = 0.5009	x2 = 0.5961	x2 = 0.6965	x2 = 0.7974	x2 = 0.8985
293.15 K	1052.75 ± 3.2	1051.85 ± 3.2	1050.9 ± 3.2	1049.75 ± 3.2	1048.38 ± 3.2	1046.9 ± 3.2	1045.18 ± 3.2	1043.35 ± 3.2	1041.33 ± 3.2	1038.71 ± 3.2
298.15 K	1049.67 ± 3.2	1048.71 ± 3.2	1047.71 ± 3.2	1046.51 ± 3.2	1045.09 ± 3.2	1043.57 ± 3.2	1041.79 ± 3.2	1039.9 ± 3.2	1037.77 ± 3.2	1035.15 ± 3.2
303.15 K	1046.55 ± 3.2	1045.54 ± 3.2	1044.49 ± 3.2	1043.23 ± 3.2	1041.76 ± 3.2	1040.18 ± 3.2	1038.34 ± 3.2	1036.39 ± 3.2	1034.25 ± 3.2	1031.52 ± 3.2
308.15 K	1043.45 ± 3.2	1042.36 ± 3.2	1041.24 ± 3.2	1039.93 ± 3.2	1038.41 ± 3.2	1036.78 ± 3.2	1034.87 ± 3.2	1032.85 ± 3.2	1030.65 ± 3.2	1027.85 ± 3.2
313.15 K	1040.32 ± 3.2	1039.16 ± 3.2	1037.97 ± 3.2	1036.61 ± 3.2	1035.02 ± 3.2	1033.34 ± 3.2	1031.36 ± 3.2	1029.27 ± 3.2	1027.04 ± 3.2	1024.18 ± 3.2
318.15 K	1037.18 ± 3.2	1035.96 ± 3.2	1034.7 ± 3.2	1033.26 ± 3.2	1031.62 ± 3.2	1029.89 ± 3.2	1027.83 ± 3.2	1025.68 ± 3.2	1023.38 ± 3.2	1020.43 ± 3.2

OCCCO [propan-1,3-diol]
[2]
Settings	mass density [kg/m3]	vapor or sublimation pressure
293.15 K	1052.75 ± 3.2	–
298.15 K	1049.67 ± 3.2	–
303.15 K	1046.55 ± 3.2	–
308.15 K	1043.45 ± 3.2	–
313.15 K	1040.32 ± 3.2	–
318.15 K	1037.18 ± 3.2	–
414.2 K	–	6.65 ± 2 kPa and 6.67 ± 2 kPa
420.8 K	–	9.93 ± 2.1 kPa
427.55 K	–	13.33 ± 2.2 kPa
427.6 K	–	13.47 ± 2.2 kPa
433.9 K	–	16.75 ± 2.6 kPa
438.05 K	–	19.99 ± 3.6 kPa
441.95 K	–	23.46 ± 3.8 kPa
445.3 K	–	26.66 ± 4.1 kPa
448.65 K	–	30.22 ± 3.8 kPa
451.65 K	–	33.22 ± 4.6 kPa
453.15 K	–	33.33 ± 4.7 kPa
454.65 K	–	36.69 ± 5 kPa
457.45 K	–	39.99 ± 6.3 kPa
457.49 K	–	40.04 ± 6.3 kPa
459.85 K	–	43.37 ± 6 kPa
461.95 K	–	46.67 ± 6.3 kPa and 46.66 ± 6.3 kPa
463.95 K	–	49.97 ± 6.8 kPa
465.45 K	–	53.24 ± 7.4 kPa

CC(O)CO (stereo unspecified) [1,2-propanediol]
[2]
Settings	mass density [kg/m3]	vapor or sublimation pressure
293.15 K	1036.25 ± 3.2	–
298.15 K	1032.61 ± 3.2	–
303.15 K	1028.93 ± 3.2	–
308.15 K	1025.19 ± 3.2	–
313.15 K	1021.42 ± 3.2	–
318.15 K	1017.65 ± 3.2	–
389.39 K	–	6.67 ± 1.8 kPa
396.95 K	–	10 ± 2 kPa
402.95 K	–	13.33 ± 2.4 kPa
408.6 K	–	16.61 ± 2.7 kPa
412.95 K	–	19.96 ± 3.3 kPa
413.23 K	–	19.99 ± 3.3 kPa
417.15 K	–	23.34 ± 3.4 kPa
421.2 K	–	26.62 ± 4.2 kPa
421.21 K	–	26.66 ± 4.2 kPa
424.5 K	–	30 ± 4.4 kPa
427.16 K	–	33.33 ± 5.1 kPa
427.23 K	–	33.57 ± 5.1 kPa
429.55 K	–	36.61 ± 6 kPa
432.05 K	–	40.01 ± 6.5 kPa and 39.99 ± 6.5 kPa
433.7 K	–	43.33 ± 6.8 kPa
436.07 K	–	46.66 ± 7.2 kPa
437.77 K	–	50 ± 7.4 kPa
439.74 K	–	53.25 ± 7 kPa
441.27 K	–	56.74 ± 8.2 kPa
443.15 K	–	59.99 ± 7.9 kPa
